Results on 12 compounds are retold here after publication PMC5354820, “Novel PARP1/2 inhibitor mefuparib hydrochloride elicits potent in vitro and in vivo anticancer activity, characteristic of high tissue distribution” (Oncotarget, 2016).

Values after ≈ are worked out from the molar mass of the structure shown. Where two headings read alike, the source gives them in different places. Where only a bound is given, the exact number is not on record here.

One data set concerns MDA-MB-436 cells. Put plainly: Proliferative inhibition assay, MDA-MB-436. It counts as cell-based. To be noted: Homo sapiens, MDA-MB-436, 168 h, read-out: IC50 (mean ± SD).
On the set-up of data set [1]: method as in PMID 18800822. To be noted: dogs; cited from earlier work.
A further data set concerns Capan-1 cells. Put plainly: Proliferative inhibition assay, Capan-1. The conditions noted are these: Homo sapiens, CAPAN-1, 168 h, read-out: IC50 (mean ± SD). The data set is classed as cell-based.
For the next data set, the system named is V79 cells. Put plainly: Proliferative inhibition assay, V79. The data set is classed as cell-based, Chinese hamster. To be noted: Cricetulus griseus, V79, 72 h, read-out: IC50 (mean ± SD).
The test system of the next data set is PC-3 cells. Put plainly: Proliferative inhibition assay, PC-3. The conditions noted are these: Homo sapiens, PC-3, 168 h, read-out: IC50 (mean ± SD). The data set is classed as cell-based.
On the set-up of data set [2]: method as in PMID 18800822. The conditions noted are these: rats; cited from earlier work.
Another data set relates to V-C8 xenografts. It counts as in vivo. The conditions noted are these: mouse, in vivo. The source says:
(§1) V-C8, V79, MDA-MB-436 and SW620 xenografts were established by inoculating 5 × 10^6 cells s.c. in nude mice, respectively. After 1~2 passages in nude mice, the well-grown xenografts were cut into 1.5-mm^3 fragments that subsequently were transplanted s.c. into the right flank of nude mice. When xenografts reached a volume of 100–200 mm^3 (230-240 mm^3 for V79), the mice were randomized to control and treated groups and received the corresponding treatments as indicated. […]. The size of xenografts and the body weight of mice were measured individually twice per week. The xenografts were measured for the maximal width (X) and length (Y) and the volume (V) was calculated as (X^2Y)/2. Relative tumor volume (RTV) was calculated as Vt / V0, where V0 and Vt were the volume before and after treatments, respectively. The in vivo anticancer activity was judged by their T/C (%) values. T/C (%) was calculated as (TRTV / CRTV)×100%, where TRTV and CRTV represented the RTV of the treatment and the vehicle group, respectively.

The next data set deals with V79 xenografts. Put plainly: V79 subcutaneous xenografts in nude mice. It counts as in vivo. To be noted: similar treatments as in V-C8 xenografts.
Source text: as §1

For another data set, the system named is HCC1937 cells. Put plainly: Proliferative inhibition assay, HCC1937. The data set is classed as cell-based. The conditions noted are these: Homo sapiens, HCC1937, 168 h, read-out: IC50 (mean ± SD).
The subject of another data set is HCT-15 cells. Put plainly: Proliferative inhibition assay, HCT-15. The data set is classed as cell-based. To be noted: Homo sapiens, HCT-15, 168 h, read-out: IC50 (mean ± SD).
The subject of data set [3] is γH2AX in MDA-MB-436 cells. Put plainly: γH2AX accumulation in cultured MDA-MB-436 cells. It counts as cell-based, human. To be noted: MDA-MB-436 (BRCA1−/−), concentration-dependent.
The next data set concerns V-C8+H13 cells. Put plainly: Proliferative inhibition assay, V-C8+H13. The data set is classed as cell-based, Chinese hamster. The conditions noted are these: Cricetulus griseus, 72 h, read-out: IC50 (mean ± SD).
For data set [4] the following is noted: cited from earlier work.
A further data set relates to V-C8 cells. Put plainly: Proliferative inhibition assay, V-C8. To be noted: Cricetulus griseus, V-C8, 72 h, read-out: IC50 (mean ± SD). The data set is classed as cell-based, Chinese hamster.
For the next data set, the system named is DoTc2-4510 cells. Put plainly: Proliferative inhibition assay, DoTc2-4510. It counts as cell-based. The conditions noted are these: Homo sapiens, DoTc2-4510, 168 h, read-out: IC50 (mean ± SD).
For the next data set, the system named is SK-ES-1 cells. Put plainly: Proliferative inhibition assay, SK-ES-1. To be noted: Homo sapiens, SK-ES1, 72 h, read-out: IC50 (mean ± SD). It counts as cell-based.
The subject of another data set is P-glycoprotein (P-gp). Details: method as in PMID 26374559. The conditions noted are these: cited from earlier work.
The subject of another data set is U251 cells. Put plainly: Proliferative inhibition assay, U251. It counts as cell-based. To be noted: Homo sapiens, U-251, 168 h, read-out: IC50 (mean ± SD).
Another data set deals with UWB1.289 cells. Put plainly: Proliferative inhibition assay, UWB1.289. The data set is classed as cell-based. The conditions noted are these: Homo sapiens, UWB1289, 168 h, read-out: IC50 (mean ± SD).
The test system of the next data set is RD-ES cells. Put plainly: Proliferative inhibition assay, RD-ES. The data set is classed as cell-based. To be noted: Homo sapiens, 72 h, read-out: IC50 (mean ± SD).
The next data set concerns γH2AX in V-C8 cells. Put plainly: γH2AX accumulation in cultured V-C8 cells. It counts as cell-based, Chinese hamster. The conditions noted are these: V-C8 (BRCA2−/−), concentration-dependent.
A further data set has as its system MDA-MB-436 xenografts. Put plainly: MDA-MB-436 subcutaneous xenografts in nude mice. The data set is classed as in vivo. To be noted: oral; MPH once every other day, AZD2281 30 mg/kg each day.
Source text: as §1

Details of data set [5]: method as in PMID 19553641. The conditions noted are these: humans; cited from earlier work.
Details of data set [6]: method as in PMID 19553641. To be noted: cited from earlier work.
Data set [7] can be described thus: Metabolites in monkey plasma. It counts as in vivo. To be noted: monkeys, MPH 10 mg/kg oral; for share of the total amount of all the metabolites and MPH in the plasma: 3-h time point; for average remaining amount, of the corresponding plasma amount at 3 h: 12-h time point. How it is done: SD rats and cynomolgus monkeys were used to do the in vivo pharmacokinetic studies. […] The metabolites in the monkey plasma were analyzed by UPLC-UV/Q-TOF MS. The metabolite data were collected with Analyst® TF V1.6 (AB Sciex Inc., Framingham, MA) and Masslynx V4.1 (Waters Corporation, Milford, MA) and analyzed with PeakView® V1.2 and MetabolitePilot V1.5 (AB Sciex).

The subject of another data set is SW620 xenografts. Put plainly: SW620 subcutaneous xenografts in nude mice, alone or with TMZ. It counts as in vivo. The conditions noted are these: SW620, d21, TMZ 2 mg/kg alone.

Description for Capan-1 cells: (§2) Cells cultured in 96-well plates were treated with PARP inhibitors alone or in combination with the indicated anticancer drugs for 3 days (Chinese hamster cells and Ewing sarcoma cells) or 7 days (all the other cells). Then the cells were subjected to the Cell Counting Kit 8 (CCK8) assays (Chinese hamster cells, Ewing sarcoma cells, HCC1937 and MDA-MB-436 cells) or by Sulforhodamine B (SRB) assays (all the other cells) as described previously [18, 19]. […] The averaged IC50 values (mean ± SD) were determined with the Logit method from three independent tests.
Description for DoTc2-4510 cells: as §2
Description for HCC1937 cells: as §2
Description for HCT-15 cells: as §2
Description for PC-3 cells: as §2
Description for RD-ES cells: as §2
Description for SK-ES-1 cells: as §2
Description for SW620 xenografts: After 1~2 passages in nude mice, the well-grown xenografts were cut into 1.5-mm^3 fragments that subsequently were transplanted s.c. into the right flank of nude mice. When xenografts reached a volume of 100–200 mm^3 (230-240 mm^3 for V79), the mice were randomized to control and treated groups and received the corresponding treatments as indicated. […] The size of xenografts and the body weight of mice were measured individually twice per week. The xenografts were measured for the maximal width (X) and length (Y) and the volume (V) was calculated as (X^2Y)/2. Relative tumor volume (RTV) was calculated as Vt / V0, where V0 and Vt were the volume before and after treatments, respectively.
Description for U251 cells: as §2
Description for UWB1.289 cells: as §2
Description for V-C8+H13 cells: as §2
Description for V79 cells: as §2

Turning to `O=C(c1cc(Cc2n[nH]c(=O)c3ccccc23)ccc1F)N1CCN(C(=O)C2CC2)CC1` [AZD2281, olaparib, reference compound], the IC50 (in general, the midpoint of a concentration-inhibition curve) in the data set with MDA-MB-436 cells was 20 ± 10 nM; with Capan-1 cells, 1730 ± 320 nM; in the data set on V79 cells, 15600 ± 1150 nM; in the data set with PC-3 cells, 4700 ± 690 nM; in the data set with HCC1937 cells, 7280 ± 1910 nM; with HCT-15 cells, 25700 ± 4700 nM. Further, the IC50 in the data set with V-C8+H13 cells stood at 13600 ± 1850 nM; in the data set with V-C8 cells it was 610 ± 40 nM; in the data set with DoTc2-4510 cells it was 890 ± 280 nM; with SK-ES-1 cells, 1700 ± 130 nM; in the data set on U251 cells it was 2500 ± 640 nM; with UWB1.289 cells, 2980 ± 1650 nM. In the data set with RD-ES cells, the IC50 worked out at 670 ± 140 nM. The values for the Vd in data set [1] and in data set [2] were 1.3 L/kg and 1.18 L/kg, respectively. For the same compound, in the data set with V-C8 xenografts, the “death or body-weight loss of the animals” value is recorded as “did not cause death or significant body-weight loss”. The “effect on growth of V79 xenografts” value with V79 xenografts is listed as “did not inhibit the growth of V79 xenografts”. In addition, the “γH2AX levels (DSB accumulation)” value (in data set [3]; with γH2AX in V-C8 cells) was “increased levels of γH2AX” in each case. Further, the water solubility in data set [4] was less than 1000 µg/mL. The “solubility in aqueous media” value in [4] (independent of pH) is 100 µg/mL (≈ 230 µM). In addition, the P-gp substrate result in the data set on P-glycoprotein (P-gp) is listed as “substrate of the drug transporter P-glycoprotein (P-gp)”. For the same compound, in the data set with MDA-MB-436 xenografts, the “effect on growth of MDA-MB-436 (BRCA1−/−) xenografts” value is “between those of MPH at 40 mg/kg and 80 mg/kg every other day”. The “average Vd” value in data set [5] is reported as 40.3 L. Also, the “passage of the blood-brain barrier” value in data set [6] is “hard to go through the blood-brain barrier”.
Consider `CNCc1ccc(-c2cc3cc(F)cc(C(=O)O)c3o2)cc1` [M1], for which, in data set [7], the “share of the total amount of all the metabolites and MPH in the plasma” value was found to be 52.18%; the “average remaining amount, of the corresponding plasma amount at 3 h” value is recorded as 3.13%.
In the same order, the values of `NC(=O)c1cc(F)cc2cc(-c3ccc(C(=O)O)cc3)oc12` [M2] are 1.86% and 23.54%.
Turning to `CNCc1ccc(-c2cc3cc(F)cc(C(=O)OC4OC(C(=O)O)C(O)C(O)C4O)c3o2)cc1` (centres unmarked) [M3], the “share of the total amount of all the metabolites and MPH in the plasma” value in data set [7] is reported as 4.18%.
The same measure, in the same setting: for `CNC(=O)c1ccc(-c2cc3cc(F)cc(C(N)=O)c3o2)cc1` [M4] the value was 0.24%; for `CC(=O)NCc1ccc(-c2cc3cc(F)cc(C(=O)O)c3o2)cc1` [M5], 0.72%.
Still for that read-out and setting: the same measure for `CN(Cc1ccc(-c2cc3cc(F)cc(C(N)=O)c3o2)cc1)OC1OC(C(=O)O)C(O)C(O)C1O` (centres unmarked) [M6]: 1.63%.
In the case of `Cn1nnc2c(C(N)=O)ncn2c1=O` [TMZ, temozolomide, reference compound], the “FTV (fractional tumor volume), TMZ alone” value in the data set with SW620 xenografts came to 0.16.
As to `NC(=O)c1cccc2cn(-c3ccc([C@@H]4CCCNC4)cc3)nc12` [niraparib], the water solubility in [4] was less than 1000 µg/mL.
Turning to `CNCc1ccc(-c2[nH]c3cc(F)cc4c3c2CCNC4=O)cc1` [rucaparib], the water solubility in data set [4] is less than 1000 µg/mL.
`Cn1ncnc1[C@H]1c2n[nH]c(=O)c3cc(F)cc(c23)N[C@@H]1c1ccc(F)cc1` [talazoparib]: the water solubility in [4] was less than 1000 µg/mL.
Turning to `C[C@]1(c2nc3c(C(N)=O)cccc3[nH]2)CCCN1` [veliparib], the water solubility in [4] was less than 1000 µg/mL.
